Test results published in US11628228B2, “99mTc-labeled isonitrile-containing glucose derivative and preparation method and use thereof” (Beijing Shihong Pharmaceutical Research Center, priority 2017, dated 2023).

Assays:
S180-bearing mice = test: Bio-distribution in tumor-bearing mice; type: in vivo; conditions: for Blood uptake / Bone uptake / Heart uptake / Kidney uptake / Liver uptake / Lung uptake / Muscle uptake / Small intestine uptake / Spleen uptake / Stomach uptake / Tumor uptake / Tumor/blood ratio / Tumor/muscle ratio: S180-bearing mice, tail vein; for Tumor/liver ratio: tumor-bearing mice, 0.5 hour after injection
Method: The labeled solution (0.1 mL, 74 KBq) is injected into mice through the tail vein, and the injection time is recorded. Then the mice were killed by cervical dislocation at different time phases (30 minutes, 60 minutes, and 120 minutes), five mice for each time phase, and the organs of interest such as heart, liver, lung, kidney, spleen, stomach, muscle, blood and tumor are taken out after dissection, and measured with a γ-counter for the radioactive count of each organ. The uptake value of each organ is obtained by calculation based on the mass of the organ (with % ID/g as the unit).

[1] = Determination of the lipid-water partition coefficient (n-octanol/PBS); type: physicochemical
Method: One hundred μL of the labeled substance solution (50 μCi) diluted with normal saline is placed into a 2 mL centrifuge tube, and then 800 μL of n-octanol and 700 μL of PBS are added to the centrifuge tube, which is subsequently covered with a cap. The centrifuge tube is vortexed for 3 minutes (2500 r/minute), allowed to stand until the solution is layered, and centrifuged in a centrifuge for 3 minutes (3000 r/minute). Three samples of the upper organic phase and three samples of the lower aqueous phase are taken, each 100 μL, and detected in a γ-counter for the radioactive counts of the organic and aqueous phases, respectively.

tumor-bearing mice = conditions: 0.5 hour after injection, literature; cited from earlier work

Compound `O=C(CC[N+]#[C][99Tc-5]([C]#[N+]CCC(=O)NC1C(O)OC(CO)C(O)C1O)([C]#[N+]CCC(=O)NC1C(O)OC(CO)C(O)C1O)([C]#[N+]CCC(=O)NC1C(O)OC(CO)C(O)C1O)([C]#[N+]CCC(=O)NC1C(O)OC(CO)C(O)C1O)[C]#[N+]CCC(=O)NC1C(O)OC(CO)C(O)C1O)NC1C(O)OC(CO)C(O)C1O` (stereo not drawn) [[^99mTc-(CN2DG)6]^+] has a Blood uptake (S180-bearing mice; 30 min) of 0.94 ± 0.18 % ID/g, a Bone uptake (S180-bearing mice; 30 min) of 0.32 ± 0.07 % ID/g and a Heart uptake (S180-bearing mice; 30 min) of 0.34 ± 0.06 % ID/g. The Kidney uptake (S180-bearing mice; 30 min) was 3.11 ± 1.04 % ID/g, the Liver uptake (S180-bearing mice; 30 min) was 0.35 ± 0.06 % ID/g and the Lung uptake (S180-bearing mice; 30 min) was 0.94 ± 0.18 % ID/g. The Muscle uptake (S180-bearing mice; 30 min) was 0.27 ± 0.07 % ID/g, the Small intestine uptake (S180-bearing mice; 30 min) was 0.44 ± 0.16 % ID/g and the Spleen uptake (S180-bearing mice; 30 min) was 0.31 ± 0.09 % ID/g. It also gave a Stomach uptake (S180-bearing mice; 30 min) of 0.38 ± 0.15 % ID/g, a Tumor uptake (S180-bearing mice; 30 min) of 1.09 ± 0.23 % ID/g and a Tumor/blood ratio (S180-bearing mice; 30 min) of 1.16. The Tumor/muscle ratio (S180-bearing mice; 30 min) was 4.04, the Blood uptake (S180-bearing mice; 60 min) was 0.20 ± 0.05 % ID/g and the Bone uptake (S180-bearing mice; 60 min) was 0.10 ± 0.02 % ID/g. For the same compound, the Heart uptake (S180-bearing mice; 60 min) was 0.12 ± 0.02 % ID/g, the Kidney uptake (S180-bearing mice; 60 min) was 1.17 ± 0.27 % ID/g and the Liver uptake (S180-bearing mice; 60 min) was 0.18 ± 0.02 % ID/g. The Lung uptake (S180-bearing mice; 60 min) was 0.26 ± 0.06 % ID/g, the Muscle uptake (S180-bearing mice; 60 min) was 0.08 ± 0.00 % ID/g and the Small intestine uptake (S180-bearing mice; 60 min) was 0.19 ± 0.03 % ID/g. For the same compound, the Spleen uptake (S180-bearing mice; 60 min) was 0.13 ± 0.02 % ID/g, the Stomach uptake (S180-bearing mice; 60 min) was 0.19 ± 0.07 % ID/g and the Tumor uptake (S180-bearing mice; 60 min) was 0.50 ± 0.07 % ID/g. The Tumor/blood ratio (S180-bearing mice; 60 min) was 2.78, the Tumor/muscle ratio (S180-bearing mice; 60 min) was 6.25 and the Blood uptake (S180-bearing mice; 120 min) was 0.01 ± 0.00 % ID/g. It also gave a Bone uptake (S180-bearing mice; 120 min) of 0.05 ± 0.02 % ID/g, a Heart uptake (S180-bearing mice; 120 min) of 0.05 ± 0.02 % ID/g and a Kidney uptake (S180-bearing mice; 120 min) of 0.68 ± 0.11 % ID/g. For the same compound, the Liver uptake (S180-bearing mice; 120 min) was 0.09 ± 0.01 % ID/g, the Lung uptake (S180-bearing mice; 120 min) was 0.09 ± 0.04 % ID/g and the Muscle uptake (S180-bearing mice; 120 min) was 0.04 ± 0.01 % ID/g. It also gave a Small intestine uptake (S180-bearing mice; 120 min) of 0.12 ± 0.02 % ID/g, a Spleen uptake (S180-bearing mice; 120 min) of 0.07 ± 0.01 % ID/g and a Stomach uptake (S180-bearing mice; 120 min) of 0.15 ± 0.06 % ID/g. It also gave a Tumor uptake (S180-bearing mice; 120 min) of 0.25 ± 0.05 % ID/g, a Tumor/blood ratio (S180-bearing mice; 120 min) of 25.00 and a Tumor/muscle ratio (S180-bearing mice; 120 min) of 6.25. The Tumor/liver ratio (S180-bearing mice) was 3.11 and the “Log P (lipid-water partition coefficient)” value [1] was −4.26±0.12.

Compound `O=C(CCCC[N+]#[C][99Tc-5]([C]#[N+]CCCCC(=O)NC1C(O)OC(CO)C(O)C1O)([C]#[N+]CCCCC(=O)NC1C(O)OC(CO)C(O)C1O)([C]#[N+]CCCCC(=O)NC1C(O)OC(CO)C(O)C1O)([C]#[N+]CCCCC(=O)NC1C(O)OC(CO)C(O)C1O)[C]#[N+]CCCCC(=O)NC1C(O)OC(CO)C(O)C1O)NC1C(O)OC(CO)C(O)C1O` (stereo not drawn) [[^99mTc-(CN4DG)6]^+] has a Blood uptake (S180-bearing mice; 30 min) of 1.80 ± 0.53 % ID/g, a Bone uptake (S180-bearing mice; 30 min) of 0.73 ± 0.23 % ID/g and a Heart uptake (S180-bearing mice; 30 min) of 0.70 ± 0.18 % ID/g. It also gave a Kidney uptake (S180-bearing mice; 30 min) of 4.93 ± 1.11 % ID/g, a Liver uptake (S180-bearing mice; 30 min) of 0.66 ± 0.13 % ID/g and a Lung uptake (S180-bearing mice; 30 min) of 1.75 ± 0.49 % ID/g. The Muscle uptake (S180-bearing mice; 30 min) was 0.57 ± 0.18 % ID/g, the Small intestine uptake (S180-bearing mice; 30 min) was 1.06 ± 0.33 % ID/g and the Spleen uptake (S180-bearing mice; 30 min) was 0.53 ± 0.12 % ID/g. For the same compound, the Stomach uptake (S180-bearing mice; 30 min) was 0.81 ± 0.33 % ID/g, the Tumor uptake (S180-bearing mice; 30 min) was 1.72 ± 0.30 % ID/g and the Tumor/blood ratio (S180-bearing mice; 30 min) was 0.95. The Tumor/muscle ratio (S180-bearing mice; 30 min) was 3.01, the Blood uptake (S180-bearing mice; 60 min) was 0.30 ± 0.13 % ID/g and the Bone uptake (S180-bearing mice; 60 min) was 0.19 ± 0.04 % ID/g. It also gave a Heart uptake (S180-bearing mice; 60 min) of 0.22 ± 0.08 % ID/g, a Kidney uptake (S180-bearing mice; 60 min) of 1.57 ± 0.27 % ID/g and a Liver uptake (S180-bearing mice; 60 min) of 0.28 ± 0.06 % ID/g. The Lung uptake (S180-bearing mice; 60 min) was 0.40 ± 0.11 % ID/g, the Muscle uptake (S180-bearing mice; 60 min) was 0.27 ± 0.17 % ID/g and the Small intestine uptake (S180-bearing mice; 60 min) was 0.25 ± 0.11 % ID/g. The Spleen uptake (S180-bearing mice; 60 min) was 0.21 ± 0.04 % ID/g, the Stomach uptake (S180-bearing mice; 60 min) was 0.23 ± 0.07 % ID/g and the Tumor uptake (S180-bearing mice; 60 min) was 0.88 ± 0.09 % ID/g. For the same compound, the Tumor/blood ratio (S180-bearing mice; 60 min) was 2.93, the Tumor/muscle ratio (S180-bearing mice; 60 min) was 3.26 and the Blood uptake (S180-bearing mice; 120 min) was 0.03 ± 0.01 % ID/g. It also gave a Bone uptake (S180-bearing mice; 120 min) of 0.13 ± 0.09 % ID/g, a Heart uptake (S180-bearing mice; 120 min) of 0.10 ± 0.04 % ID/g and a Kidney uptake (S180-bearing mice; 120 min) of 1.24 ± 0.53 % ID/g. The Liver uptake (S180-bearing mice; 120 min) was 0.17 ± 0.03 % ID/g, the Lung uptake (S180-bearing mice; 120 min) was 0.13 ± 0.02 % ID/g and the Muscle uptake (S180-bearing mice; 120 min) was 0.15 ± 0.07 % ID/g. It also gave a Small intestine uptake (S180-bearing mice; 120 min) of 0.36 ± 0.21 % ID/g, a Spleen uptake (S180-bearing mice; 120 min) of 0.11 ± 0.02 % ID/g and a Stomach uptake (S180-bearing mice; 120 min) of 0.08 ± 0.01 % ID/g. The Tumor uptake (S180-bearing mice; 120 min) was 0.45 ± 0.17 % ID/g, the Tumor/blood ratio (S180-bearing mice; 120 min) was 15.00 and the Tumor/muscle ratio (S180-bearing mice; 120 min) was 3.00. The Tumor/liver ratio (S180-bearing mice) was 2.60 and the “Log P (lipid-water partition coefficient)” value [1] was −3.84±0.06.

For `O=C(NC1C(O)O[C@H](CO)[C@@H](O)[C@@H]1O)C1C[S][Tc]23(=[O])[S]C[C@@H](C(=O)NC4C(O)O[C@H](CO)[C@@H](O)[C@@H]4O)[N]2CC[N]13` (stereo partly drawn) [^99mTc-ECDG], the Blood uptake (tumor-bearing mice) is given as 1.61 ± 0.39 % ID/g, the Kidney uptake (tumor-bearing mice) is given as 6.73 ± 1.84 % ID/g and the Liver uptake (tumor-bearing mice) is given as 5.67 ± 2.08 % ID/g. The Muscle uptake (tumor-bearing mice) was 0.26 ± 0.07 % ID/g, the Tumor uptake (tumor-bearing mice) was 0.79 ± 0.16 % ID/g and the Tumor/blood ratio (tumor-bearing mice) was 0.49. The Tumor/liver ratio (tumor-bearing mice) was 0.14 and the Tumor/muscle ratio (tumor-bearing mice) was 3.04.
